# In article PMC12030043, “Preparation and Therapeutic Evaluation of Engineered Semaglutide and Statin–Lipid Conjugate-Based Nanoparticle” (Pharmaceutics, 2025):
# How the values were obtained:
# [1] = Particle size by dynamic light scattering (DLS) in aqueous solution; type: physicochemical; conditions: 1 mL distilled water containing 5% DMSO, semaglutide fixed at 0.1 mg, semaglutide alone 0.1 mg/mL, RLC alone 1 mg/mL, mean ± S.D., n = 3
# Protocol: (§1) To determine the optimal formulation and final composition of the semaglutide–RLC nanoparticles (SRLC NPs), a precipitation evaluation experiment was conducted using various mass ratios (1:10, 1:20, 1:30, w/w) of semaglutide to RLC. Based on stability and particle size analysis, the 1:10 ratio was selected as the optimal formulation, and this ratio was maintained in the final product composition to ensure consistency in therapeutic efficacy and physicochemical properties. The resulting mixture was used immediately without undergoing a separate freeze-drying process. For nanoparticle preparation, semaglutide ([…]) was dissolved in 1 mL of DW, while RLC ([…]) was dissolved in 1 mL of DMSO. […] The stability of each formulation was assessed by measuring particle size at multiple time points (0, 0.5, 1, 2, 3, 4, and 5 days) using dynamic light scattering (DLS; Zetasizer Nano, Malvern Instruments, Worcestershire, UK). The zeta potential of both RLC alone and the semaglutide–RLC (1:10) formulation was also measured to evaluate the surface charge and colloidal stability of the nanoparticles. Additionally, in vivo stability was evaluated by preparing 1 mL of Dulbecco’s phosphate-buffered saline (DPBS) containing 10% fetal bovine serum (FBS) and 5% DMSO, followed by particle size measurements at different time points (0, 0.5, 1, and 2 days). […]
# [2] = Zeta potential measurement; type: physicochemical; conditions: Zetasizer Nano; RLC alone and semaglutide–RLC (1:10) formulation; mean ± S.D.
# Protocol: as §1
# [3] = system: high-fat diet (HFD)-fed mouse model; experiment: Histopathology (H&E and oil red O staining) of liver and adipose tissue in HFD-fed mice; type: in vivo, C57BL/6 mice
# Protocol: All animal experiments were conducted under the standard regulations of the Institutional Animal Care and Use Committee (IACUC) at Konkuk University (ref. no. KU22078-1). The animals were housed in a controlled environment with regulated temperature and humidity, maintained under a 12 h light–dark cycle. Obesity was induced in 5-week-old male C57BL/6 mice through dietary control for 69 days. A total of 25 mice were used and divided into five experimental groups: negative control (regular diet, RD), positive control (high-fat diet, HFD), RO (0.5 mg/kg), RLC (1 mg/kg), and SRLC NPs (1.1 mg/kg). The RO dose was set at half that of RLC due to its molecular weight being approximately twice that of RLC, ensuring equivalent molar exposure. Additionally, the SRLC NP dose was adjusted to 1.1 mg/kg as it comprised 1 mg of RLC and 0.1 mg of semaglutide, allowing for the accurate comparison of therapeutic effects. While the RD group received a normal diet, the other groups were fed a high-fat diet (HFD) consisting of 60 kcal% fat (D12492, Research Diets, New Brunswick, NJ, USA). The body weights of the mice were measured weekly. Starting from day 28 of the dietary intervention, each group received their respective substances via subcutaneous injection every three days. Five days before the end of the experiment, an oral glucose tolerance test (OGTT) was conducted to assess glucose sensitivity. After 19 h of fasting, all experimental groups were administered a glucose solution orally (2 g/kg). Blood glucose levels were then measured at time intervals of 0, 15, 30, 60, 90, 120, and 180 min (n = 3). Blood glucose levels were assessed using a glucometer (G CARE, GC Medical Science, Yongin, Republic of Korea). On the final day of the experiment, after 14 h of fasting, the mice were anesthetized via intraperitoneal administration of 2,2,2-tribromoethanol (TBE), and blood samples were collected. Hepatotoxicity and lipid profiling analyses were conducted using the collected blood samples, while liver tissues were subjected to hematoxylin and eosin (H&E) and oil red O (ORO) staining for further evaluation. All analyses were performed by KP&T Technology (Cheongju, Republic of Korea).
# Representative images of mice from the HFD group and the SRLC NPs-treated group on the final day of the experiment are shown in Figure 9A. To evaluate the pathological changes at the tissue level and the therapeutic effects of SRLC NPs, hematoxylin and eosin (H&E) staining and oil red O (ORO) staining were performed (Figure 9B). These staining analyses were conducted to confirm the reduction in hepatic fat accumulation and assess adipose tissue remodeling following SRLC NPs treatment. […] The area of the adipocyte in sWAT (n = 4) was as follows: HFD, 78.86 ± 1.38%; RO, 77.51 ± 2.52%; RLC, 72.72 ± 2.75%; and SRLC NPs, 47.45 ± 1.03% (Figure 9E). The diameter of the adipocyte in eWAT (n = 7) was the following: HFD, 64.12 ± 12.51 µm; RO, 59.53 ± 6.42 µm; RLC, 57.01 ± 7.04 µm; and SRLC NPs, 33.79 ± 3.62 µm (Figure 9F). The area of the adipocyte in eWAT (n = 4) was as follows: HFD, 76.44 ± 1.91%; RO, 79.30 ± 1.91%; RLC, 79.223 ± 1.53%; and SRLC NPs, 63.28 ± 2.94% (Figure 9G).
smiles,measurement,setting,value
CC(C)c1nc(N(C)S(C)(=O)=O)nc(-c2ccc(F)cc2)c1C=CC(O)CC(O)CC(=O)NCCNC(=O)CCC(C)C1CCC2C3C(O)CC4CC(O)CCC4(C)C3CCC12C (stereo not shown) [RLC],particle size,[1],613.30 ± 26.86 nm
same,zeta potential,[2],−22.08 ± 0.48 mV
same,lipid staining and fat droplet accumulation in liver tissue (in words),"[3]; H&E and ORO staining, RO 0.5, RLC 1, SRLC NPs 1.1 mg/kg s.c.",abnormal fat droplet accumulation
same,diameter of the adipocyte in sWAT,"[3]; H&E, HFD group 60.32 ± 6.95 µm, mean ± S.D., n = 7",49.79 ± 7.09 µm
same,diameter of the adipocyte in eWAT,"[3]; H&E, HFD group 64.12 ± 12.51 µm, mean ± S.D., n = 7",57.01 ± 7.04 µm
same,area of the adipocyte in sWAT,"[3]; H&E, HFD group 78.86 ± 1.38%, mean ± S.D., n = 4",72.72 ± 2.75%
same,quantification of ORO staining,"[3]; liver tissue, HFD group = 100.00 ± 15.00%, RO 0.5, RLC 1, SRLC NPs 1.1 mg/kg s.c., mean ± S.D., n = 4",49.50 ± 9.53%
